This note sets out measurements from EP0657176B1, “Composition containing a water-insoluble or slightly water-soluble compound with enhanced water-solubility” (priority 1993, dated 1995).

Series [1] is described as follows: Water-solubility of acetohexamide alone or combined with β-CyD-G2-COONa or β-CyD (Example 13). The series is classed as physicochemical. To be noted: with β-CyD-G2-COONa or β-CyD 1:1 (molar ratio), as Example 12, powder 100 mg + water 1 ml; alone: 25 °C, 6 hours; ultraviolet spectrophotometer; read-out: solubilities of acetohexamide.
Description: Separately, powder was obtained by the same operation except using β-CyD instead of the above β-CyD-G2-COONa. Water (1 ml) was added to each powder (100 mg) thus obtained to dissolve it. On the other hand, acetohexamide alone was added to water, and the mixture was vigorously shaken at 25 °C for 6 hours and filtered through a membrane filter of 0.22 µm. The acetohexamide in the above filtrate was determined with an ultraviolet spectrophotometer (Shimadzu Corp., UV-240).
A short description of series [2]: Water-solubility of phenytoin alone or combined with β-CyD-G2-COONa or β-CyD (Example 9).
Description: (§4) Sodium6-O-cyclomaltoheptaosyl-(6→1)-O-α-D-glucosyl-(4→1)-O-α-D-glucuronate (β-CyD-G2-COONa)(75 mg) was dissolved in water (5 ml).
A short description of series [3]: Water-solubility of clofibrate alone or combined with β-CyD-G2-COONa or β-CyD (Example 5). The series is classed as physicochemical. To be noted: in water; with β-CyD-G2-COONa or β-CyD 1:2 (molar ratio), lyophilized powder; as Example 1; read-out: solubilities of clofibrate. As to the method:
(§1) The antineoplastic agent 6-O-(N-chloroacetylcarbamoyl)fumagillol (100 mg) was dissolved in ethanol (4 ml). […] The aqueous solution was added to the ethanol solution and mixed with it with stirring. The resulting solution was lyophilized in vacuo to give powder. Water (1 ml) was added to the powder (100 mg) to obtain a homogeneous aqueous solution, i.e., a composition of the present invention.
(§2) On the other hand, the antineoplastic agent alone was added to water, and the mixture was vigorously shaken at 25 °C for 4 hours and filtered through a membrane filter of 0.22 µm.
(§3) The antineoplastic agent in the above homogeneous aqueous solution and filtrate was determined by high performance liquid chromatography (HPLC). As a result, the solubilities in Table 1 were obtained.
Likewise, lyophilized powder was obtained from clofibrate and β-cyclodextrin (β-CyD) (clofibrate : β-CyD = 1:2 (molar ratio)). […]

For series [4] the following is noted: water, 8 h. An excerpt: The results are in Table 10. Table 10
Series [5] is described as follows: Water-solubility of testosterone alone or combined with α-CyD-G2-COONa or α-CyD (Example 14). To be noted: testosterone about 4 mg, α-CyD-G2-COONa or α-CyD 75 mg in water 5 ml, shaken at 25°C for 8 hours; ultraviolet spectrophotometer; read-out: solubilities of testosterone. The series is classed as physicochemical. As to the method:
The same operations were carried out using α-cyclodextrin (α-CyD) instead of α-CyD-G2-COONa or using testosterone alone. The concentration of testosterone dissolved in the resulting filtrate was determined with an ultraviolet spectrophotometer (Shimadzu Corp., UV-240).

The nature of series [6]: Water-solubility of testosterone alone or combined with β-CyD-CH2CH(OH)-COONa or β-CyD (Example 15). The conditions noted are these: testosterone about 4 mg, β-CyD-CH2CH(OH)-COONa or β-CyD 75 mg in water 5 ml, shaken at 25°C for 8 hours; ultraviolet spectrophotometer; read-out: solubilities of testosterone. The series is classed as physicochemical. The procedure: The same operations were carried out using β-CyD instead of β-CyD-CH2CH(OH)-COONa or using testosterone alone. The concentration of testosterone dissolved in the resulting filtrate was determined with an ultraviolet spectrophotometer (Shimadzu Corp., UV-240).

The nature of series [7]: Water-solubility of testosterone alone or combined with β-CyD-G2-COONa or β-CyD (Example 8).
Description: as §4
Series [8] is described as follows: Water-solubility of indomethacin alone or combined with β-CyD-G2-COONa or β-CyD (Example 11). The source says:
The results are in Table 11. Table 11

A short description of series [9]: Water-solubility of griseofulvin alone or combined with β-CyD-G2-COONa or β-CyD (Example 12, milling, spectrophotometry). It is filed as physicochemical. To be noted: with β-CyD-G2-COONa or β-CyD 1:1 (molar ratio), shaken in tumbler pulverizer with a small amount of water, lyophilized, powder 100 mg + water 1 ml, alone: 25°C, 6 hours, read-out: solubilities of griseofulvin.
Description: Water (1 ml) was added to each powder (100 mg) thus obtained to obtain an aqueous solution thereof. On the other hand, griseofulvin alone was added to water, and the mixture was vigorously shaken at 25°C for 6 hours and filtered through a membrane filter of 0.22 µm.
The griseofulvin in the above filtrate was determined by spectrophotometry (Shimadzu Corp., UV-240 spectrophotometer).

Series [10] is described as follows: Water-solubility of the cephalosporin antibiotic alone or combined with β-CyD-G2-COONa or β-CyD (Example 3, HPLC). The series is classed as physicochemical. To be noted: cephalosporin antibiotic (free form) in water, with β-CyD-G2-COONa or β-CyD 1:2 (mol ratio), lyophilized powder 100 mg + water 1 ml, alone: shaken at 25 °C for 8 hours, read-out: solubilities of the antibiotic. As to the method:
The aqueous solution was added to the ethanol solution and mixed with it with stirring. The resulting solution was lyophilized in vacuo to give powder. Water (1 ml) was added to the powder (100 mg) to obtain a homogeneous aqueous solution, i.e., a composition of the present invention. On the other hand, the antibiotic alone was added to water, and the mixture was vigorously shaken at 25 °C for 8 hours and filtered through a membrane filter of 0.22 µm.
The antibiotic in the above homogeneous aqueous solution and filtrate was determined by high performance liquid chromatography (HPLC). As a result, the solubilities in Table 3 were obtained.

A short description of series [11]: Water-solubility of the antineoplastic agent alone or combined with α-CyD-G2-COONa or α-CyD (Example 2, HPLC). The series is classed as physicochemical. To be noted: 6-O-(N-chloroacetylcarbamoyl)fumagillol in water, with α-CyD-G2-COONa or α-CyD 1:2 (mol ratio), lyophilized powder 100 mg + water 1 ml, alone: shaken at 25 °C for 4 hours, 0.22 µm filter, read-out: solubilities of the antineoplastic agent. As to the method: The aqueous solution was added to the ethanol solution and mixed with it with stirring. The resulting solution was lyophilized in vacuo to give powder. Water (1 ml) was added to the powder (100 mg) to obtain a homogeneous aqueous solution, i.e., a composition of the present invention. On the other hand, the antineoplastic agent alone was added to water, and the mixture was vigorously shaken at 25 °C for 4 hours and filtered through a membrane filter of 0.22 µm.
The antineoplastic agent in the above homogeneous aqueous solution and filtrate was determined by high performance liquid chromatography (HPLC). As a result, the solubilities in Table 2 were obtained.

Series [12] can be described thus: Water-solubility of the antineoplastic agent alone or combined with β-CyD-G2-COONa or β-CyD (Example 1, HPLC). The conditions noted are these: 6-O-(N-chloroacetylcarbamoyl)fumagillol in water, with β-CyD-G2-COONa or β-CyD 1:2 (mol ratio), lyophilized powder 100 mg + water 1 ml, alone: shaken at 25 °C for 4 hours, 0.22 µm filter, read-out: solubilities of the antineoplastic agent. It is filed as physicochemical. As to the method:
as §1, §2, §3

A short description of series [13]: Water-solubility of flufenamic acid alone or combined with β-CyD-G2-COONa or β-CyD (Example 7). The series is classed as physicochemical. To be noted: flufenamic acid about 6 mg; as Example 6 (cyclodextrin 75 mg in water 5 ml, 25°C, 8 hours).
Description: as §4
A short description of series [14]: Water-solubility of the antifungal agent alone or combined with β-CyD-G2-COONa or β-CyD (Example 4). The series is classed as physicochemical. The conditions noted are these: triazolone antifungal agent in water; with β-CyD-G2-COONa or β-CyD 1:2 (molar ratio), lyophilized powder; as Example 1; read-out: solubilities of the antifungal agent. As to the method: as §1, §2, §3
Likewise, lyophilized powder was obtained from the antifungal agent and β-cyclodextrin (β-CyD)(the antifungal agent : β-CyD = 1:2 (molar ratio)). […]

Take `CC(=O)c1ccc(S(=O)(=O)NC(=O)NC2CCCCC2)cc1` [Acetohexamide alone, acetohexamide]: the solubility in series [1] came out at 28.1 µg/mL.
In the case of `O=C1NC(=O)C(c2ccccc2)(c2ccccc2)N1` [Phenytoin alone, phenytoin], the solubility at 8 h in series [2] was 27 µg/mL.
`CCOC(=O)C(C)(C)Oc1ccc(Cl)cc1` [Clofibrate agent alone, clofibrate]: the solubility in series [3] stood at 82 µg/mL.
On to vitamin K2 [Vitamin K2 alone], for which the “solubilities of vitamin K2” value in series [4] was found to be 0.0005 µg/mL.
Consider `C[C@]12CC[C@H]3[C@@H](CCC4=CC(=O)CC[C@@]43C)[C@@H]1CC[C@@H]2O` [Testosterone alone, testosterone], for which the solubility at 8 h in [5], in series [6] and in series [7] was 29 µg/mL each time.
`COc1ccc2c(c1)c(CC(=O)O)c(C)n2C(=O)c1ccc(Cl)cc1` [Indomethacin alone, indomethacin]: the solubility at 8 h in [8] was 23 µg/mL.
With `COC1=CC(=O)C[C@@H](C)[C@]12Oc1c(Cl)c(OC)cc(OC)c1C2=O` [Griseofulvin alone, griseofulvin], the solubility in series [9] was determined as 23 µg/mL.
As to `COC1C(OC(=O)NC(=O)CCl)CCC2(CO2)C1C1(C)OC1CC=C(C)C` (centres unmarked) [Antineoplastic agent alone], the results for the solubility in [10], in series [11] and in series [12] were 2500 µg/mL, 1800 µg/mL and 1800 µg/mL, respectively.
Turning to `O=C(O)c1ccccc1Nc1cccc(C(F)(F)F)c1` [Flufenamic acid alone, flufenamic acid], the “solubilities of flufenamic acid” value in series [13] is 0.074 mg/mL.
On to `C[C@@H](n1ncn(-c2ccc(OCC(F)(F)C(F)F)cc2)c1=O)[C@](O)(Cn1cncn1)c1ccc(F)cc1F` [Antifungal agent alone, 2-[(1R,2R)-2-(2,4-difluorophenyl)-2-hydroxy-1-methyl-3-(1H-1,2,4-triazol-1-yl)propyl]-4-[4-(2,2,3,3-tetrafluoropropoxy)phenyl]-3-(2H,4H)-1,2,4-triazolone], for which the solubility in series [14] worked out at 5 µg/mL.
